Measurements taken from US11180462B2, “Microbiocidal oxadiazole derivatives” (SYNGENTA PARTICIPATIONS AG, priority 2015, dated 2021).

How the values were obtained:
Phakopsora Pachyrhizi = assay: Fungicidal activity against Phakopsora pachyrhizi / soybean / leaf disc preventative (Asian soybean rust); type: in vivo; conditions: foliar, 200 ppm in the applied formulation, soybean leaf disks, compared to untreated control leaf disks, read-out: disease control
Method in brief: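 Scored 12 to 14 days post-application as percent control relative to untreated check discs, rust spores were sprayed under the disc one day after compound treatment. Incubation: 20°C, 75% rh, first 24–36 h in darkness, then 12 h daily light; discs kept on water agar.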

[1] = test system: Puccinia recondita f. Sp. Tritici; assay: Fungicidal activity against Puccinia recondita f. sp. tritici / wheat / leaf disc preventative (brown rust); type: in vivo; conditions: foliar, 200 ppm in the applied formulation, wheat leaf segments, preventative, compared to untreated control leaf disks, read-out: disease control
Method in brief: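 Percent disease control relative to untreated check segments is scored once disease develops, 7 to 9 days after application. Wheat cv. Kanzler segments receive compound spray (200 ppm in formulation) one day before spore inoculation, then sit at 19° C. and 75% rh under 12 h light/12 h dark.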

[2] = test system: Puccinia recondita f. Sp. Tritici; assay: Fungicidal activity against Puccinia recondita f. sp. tritici / wheat / leaf disc curative (brown rust); type: in vivo; conditions: foliar, 24 h, 200 ppm in the applied formulation, wheat leaf segments, curative (applied 1 day after inoculation), compared to untreated control leaf disks, read-out: disease control
Method in brief: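 % disease control vs untreated, scored 6–8 d post-application. Wheat cv. Kanzler segments, spore-inoculated, dark 19° C/75% RH; formulated cpd applied 1 d post-inoc; then 19° C, 75% RH, 12 h L/12 h D.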

[3] = test system: Glomerella lagenarium (Colletotrichum lagenarium); assay: Fungicidal activity against Glomerella lagenarium (Colletotrichum lagenarium) liquid culture / cucumber / preventative (anthracnose); type: cell-based; conditions: Colletotrichum orbiculare; 20 ppm in the applied formulation; liquid culture (PDB), growth inhibition measured photometrically after 3 to 4 days; compared to untreated control; read-out: disease control
Method in brief: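 Percent activity against the untreated check was derived from photometric growth measurements made 2 to 7 days after conidia in potato dextrose broth were combined with compound at 20 ppm. Cultures were kept dark at 24 °C and 96% humidity.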

CC(C)C(=O)N(Cc1ccc(-c2noc(C(F)(F)F)n2)cc1)CC(F)(F)F [Compound 1.689, 2-methyl-N-(2,2,2-trifluoroethyl)-N-[[4-[5-(trifluoromethyl)-1,2,4-oxadiazol-3-yl]phenyl]methyl]-propanamide]
≥ 80%: pest or weed control at 200 ppm (Phakopsora Pachyrhizi) | pest or weed control at 200 ppm [1] | pest or weed control at 200 ppm [2] | inhibition of growth at 20 ppm [3]

O=C(C1CC1(F)F)N(Cc1ccc(-c2noc(C(F)(F)F)n2)cc1)CC(F)(F)F (stereo not drawn) [Compound 1.690, 2,2-difluoro-N-(2,2,2-trifluoroethyl)-N-[[4-[5-(trifluoromethyl)-1,2,4-oxadiazol-3-yl]phenyl]methyl]-cyclopropane-carboxamide]
≥ 80%: pest or weed control at 200 ppm (Phakopsora Pachyrhizi) | pest or weed control at 200 ppm [1] | pest or weed control at 200 ppm [2] | inhibition of growth at 20 ppm [3]

O=C(C1CCOC1)N(Cc1ccc(-c2noc(C(F)(F)F)n2)cc1)CC(F)(F)F (stereo not drawn) [Compound 1.692, N-(2.2.2-trifluoroethyl)-N-[[4-[5-(trifluoromethyl)-1,2,4-oxadiazol-3-yl]phenyl]methyl]-tetrahydrofuran-3-carboxamide]
≥ 80%: pest or weed control at 200 ppm (Phakopsora Pachyrhizi) | pest or weed control at 200 ppm [1] | pest or weed control at 200 ppm [2] | inhibition of growth at 20 ppm [3]

CC1(C(=O)N(Cc2ccc(-c3noc(C(F)(F)F)n3)cc2)CC(F)(F)F)CC1 [Compound 1.696, 1-methyl-N-(2,2,2-trifluoroethyl)-N-[[4-[5-(trifluoromethyl)-1,2,4-oxadiazol-3-yl]phenyl]methyl]-cyclopropane-carboxamide]
≥ 80%: pest or weed control at 200 ppm (Phakopsora Pachyrhizi) | pest or weed control at 200 ppm [1] | pest or weed control at 200 ppm [2] | inhibition of growth at 20 ppm [3]

CC1(C(=O)N(Cc2ccc(-c3noc(C(F)(F)F)n3)cc2)CC(F)(F)F)COC1 [Compound 1.698, 3-methyl-N-(2,2,2-trifluoroethyl)-N-[[4-[5-(trifluoromethyl)-1,2,4-oxadiazol-3-yl]phenyl]methyl]-oxetane-3-carboxamide]
≥ 80%: pest or weed control at 200 ppm (Phakopsora Pachyrhizi) | pest or weed control at 200 ppm [1] | pest or weed control at 200 ppm [2] | inhibition of growth at 20 ppm [3]

N#CCC(=O)N(Cc1ccc(-c2noc(C(F)(F)F)n2)cc1)CC(F)(F)F [Compound 1.701, 2-cyano-N-(2,2,2-trifluoroethyl)-N-[[4-[5-(trifluoromethyl)-1,2,4-oxadiazol-3-yl]phenyl]methyl]-acetamide]
≥ 80%: pest or weed control at 200 ppm (Phakopsora Pachyrhizi) | pest or weed control at 200 ppm [1] | pest or weed control at 200 ppm [2] | inhibition of growth at 20 ppm [3]

N#CC1(C(=O)N(Cc2ccc(-c3noc(C(F)(F)F)n3)cc2)CC(F)(F)F)CC1 [Compound 1.702, 1-cyano-N-(2,2,2-trrfluoroethyl)-N-[[4-[5-(trifluoromethyl)-1,2,4-oxadiazol-3-yl]phenyl]methyl]-cyclopropane-carboxamide]
≥ 80%: pest or weed control at 200 ppm (Phakopsora Pachyrhizi) | pest or weed control at 200 ppm [1] | pest or weed control at 200 ppm [2] | inhibition of growth at 20 ppm [3]

COC(C)C(=O)N(Cc1ccc(-c2noc(C(F)(F)F)n2)cc1)CC(F)(F)F (stereo not drawn) [Compound 1.703, 2-methoxy-N-(2,2,2-trifluoroethyl)-N-[[4-[5-(trifluoromethyl)-1,2,4-oxadiazol-3-yl]phenyl]methyl]-propanamide]
≥ 80%: pest or weed control at 200 ppm (Phakopsora Pachyrhizi) | pest or weed control at 200 ppm [1] | pest or weed control at 200 ppm [2] | inhibition of growth at 20 ppm [3]

CC(=O)N(Cc1ccc(-c2noc(C(F)(F)F)n2)cc1)CC(F)(F)F [Compound 1.705, N-(2,2,2-trifluoroethyl)-N-[[4-[5-(trifluoromethyl)-1,2,4-oxadiazol-3-yl]phenyl]methyl]-acetamide]
≥ 80%: pest or weed control at 200 ppm (Phakopsora Pachyrhizi) | pest or weed control at 200 ppm [1] | pest or weed control at 200 ppm [2] | inhibition of growth at 20 ppm [3]

CC(C)C(=O)N(CCO)Cc1ccc(-c2noc(C(F)(F)F)n2)cc1 [Compound 1.707, N-(2-hydroxyethyl)-2-methyl-N-[[4-[5-(trifluoromethyl)-1,2,4-oxadiazol-3-yl]phenyl]methyl]-propanamide]
≥ 80%: pest or weed control at 200 ppm (Phakopsora Pachyrhizi) | pest or weed control at 200 ppm [1] | pest or weed control at 200 ppm [2] | inhibition of growth at 20 ppm [3]

O=C(C1CCC1)N(CCO)Cc1ccc(-c2noc(C(F)(F)F)n2)cc1 [Compound 1.714, N-(2-hydroxyethyl)-N-[[4-[5-(trifluoromethyl)-1,2,4-oxadiazol-3-yl]phenyl]methyl]-cyclobutane-carboxamide]
≥ 80%: pest or weed control at 200 ppm (Phakopsora Pachyrhizi) | pest or weed control at 200 ppm [1] | pest or weed control at 200 ppm [2] | inhibition of growth at 20 ppm [3]

CC1CC1C(=O)N(CCO)Cc1ccc(-c2noc(C(F)(F)F)n2)cc1 (stereo not drawn) [Compound 1.717, N-(2-hydroxyethyl)-2-methyl-N-[[4-[5-(trifluoromethyl)-1,2,4-oxadiazol-3-yl]phenyl]methyl]-cyclopropane-carboxamide]
≥ 80%: pest or weed control at 200 ppm (Phakopsora Pachyrhizi) | pest or weed control at 200 ppm [1] | pest or weed control at 200 ppm [2] | inhibition of growth at 20 ppm [3]

CC1(C(=O)N(CCO)Cc2ccc(-c3noc(C(F)(F)F)n3)cc2)CC1 [Compound 1.718, N-(2-hydroxyethyl)-1-methyl-N-[[4-[5-(trifiuoromethyl)-1,2,4-oxadiazol-3-yl]phenyl]methyl]-cyctopropane-carboxamide]
≥ 80%: pest or weed control at 200 ppm (Phakopsora Pachyrhizi) | pest or weed control at 200 ppm [1] | pest or weed control at 200 ppm [2] | inhibition of growth at 20 ppm [3]

CCC(COC)C(=O)N(CCO)Cc1ccc(-c2noc(C(F)(F)F)n2)cc1 (stereo not drawn) [Compound 1.723, N-(2-hydroxyethyl)-2-(methoxymethyl)-N-[[4-[5-(trifluoromethyl)-1,2,4-oxadiazol-3-yl]phenyl]methyl]-butanamide]
≥ 80%: pest or weed control at 200 ppm (Phakopsora Pachyrhizi) | pest or weed control at 200 ppm [1] | pest or weed control at 200 ppm [2] | inhibition of growth at 20 ppm [3]

COCCCC(=O)N(CCO)Cc1ccc(-c2noc(C(F)(F)F)n2)cc1 [Compound 1.724, N-(2-hydroxyethyl)-4-methoxy-N-[[4-[5-(trifluoromethyl)-1,2,4-oxadiazol-3-yl]phenyl]methyl]-butanamide]
≥ 80%: pest or weed control at 200 ppm (Phakopsora Pachyrhizi) | pest or weed control at 200 ppm [1] | pest or weed control at 200 ppm [2] | inhibition of growth at 20 ppm [3]

COCCCC(=O)OCCN(Cc1ccc(-c2noc(C(F)(F)F)n2)cc1)C(=O)CCCOC [Compound 1.725, 2-[4-methoxybutanoyl-[[4-[5-(trifluoromethyl)-1,2,4-oxadiazol-3-yl]phenyl]methyl]-amino]ethyl 4-methoxybutanoate]
≥ 80%: pest or weed control at 200 ppm (Phakopsora Pachyrhizi) | pest or weed control at 200 ppm [1] | pest or weed control at 200 ppm [2] | inhibition of growth at 20 ppm [3]

O=C(C1CCCO1)N(CCO)Cc1ccc(-c2noc(C(F)(F)F)n2)cc1 (stereo not drawn) [Compound 1.726, N-(2-hydroxyethyl)-N-[[4-[5-(trifluoromethyl)-1,2,4-oxadiazol-3-yl]phenyl]methyl]-tetrahydrofuran-2-carboxamido]
≥ 80%: pest or weed control at 200 ppm (Phakopsora Pachyrhizi) | pest or weed control at 200 ppm [1] | pest or weed control at 200 ppm [2] | inhibition of growth at 20 ppm [3]

O=C(OCCN(Cc1ccc(-c2noc(C(F)(F)F)n2)cc1)C(=O)C1CCCO1)C1CCCO1 (stereo not drawn) [Compound 1.727, 2-[tetrahydrofuran-2-carbonyl-[[4-[5-(trifluoromethyl)-1,2,4-oxadiazol-3-yl]phenyl]methyl]-amino]ethyl tetrahydrofuran-2-carboxylate]
≥ 80%: pest or weed control at 200 ppm (Phakopsora Pachyrhizi) | pest or weed control at 200 ppm [1] | pest or weed control at 200 ppm [2] | inhibition of growth at 20 ppm [3]

CC(C)C(=O)N(Cc1ccc(-c2noc(C(F)(F)F)n2)cc1)C1COC1 [Compound 1.738, 2-methyl-N-(oxetan-3-yl)-N-[[4-[5-(trifiuoromethyl)-1,2,4-oxadiazol-3-yl]phenyl]methyl]-propanamide]
≥ 80%: pest or weed control at 200 ppm (Phakopsora Pachyrhizi) | pest or weed control at 200 ppm [1] | pest or weed control at 200 ppm [2] | inhibition of growth at 20 ppm [3]

O=C(C1CC1(F)F)N(Cc1ccc(-c2noc(C(F)(F)F)n2)cc1)C1COC1 (stereo not drawn) [Compound 1.739, 2,2-difluoro-N-(oxetan-3-yl)-N-[[4-[5-(trifluoromethyl)-1,2,4-oxadiazol-3-yl]phenyl]methyl]-cyclopropane-carboxamide]
≥ 80%: pest or weed control at 200 ppm (Phakopsora Pachyrhizi) | pest or weed control at 200 ppm [1] | pest or weed control at 200 ppm [2] | inhibition of growth at 20 ppm [3]

O=C(c1ccccc1Cl)N(Cc1ccc(-c2noc(C(F)(F)F)n2)cc1)C1COC1 [Compound 1.740, 2-chloro-N-(oxetan-3-yl)-N-[[4-[5-(trifluoromethyl)-1,2,4-oxadiazol-3-yl]phenyl]methyl]-benzamide]
≥ 80%: pest or weed control at 200 ppm (Phakopsora Pachyrhizi) | pest or weed control at 200 ppm [1] | pest or weed control at 200 ppm [2] | inhibition of growth at 20 ppm [3]
